Where two headings read alike, the source gives them in different places.
Assays:
Chlorella pyrenoidosa = details: 100 mg of malathion L^−1; cited from earlier work
Chlorella sorokiniana [1] = test: Malathion twelve day growth study: chlorophyll a and chl a/b ratio; type: cell-based, Chlorella sorokiniana (UTEX 2805)
Protocol: • Analysis of growth parameters: Chlorophyll a was estimated following the method of Porra et al., (1989) Biochem. Biophys. Acta 975, 384-394. Biomass estimations were performed by filtering the cultures through pre-dried and weighed Whatman GF/C glass fiber filters (4.7 cm diameter; 1.2 μm pore size). After washing with 0.65 M ammonium formate, filters were then dried at 60° C. overnight and cooled in a desiccant pouch before re-weighing. Specific growth rates, divisions per day, and generation times were estimated based upon biomass data for days 6 to 9 and days 9 to 12 using the following equations:
(§1) • Test strain: Chlorella sorokiniana (UTEX 2805) was obtained from UTEX Culture Collections and maintained in BG11 medium (Stanier et al., (1971) Bacteria Rev. 35: 171-205, incorporated herein in its entirety). The pH of culture medium was adjusted to 7.5±0.2 before inoculation and the alga was maintained in a temperature controlled growth chamber at 25±1° C. and 100±10 μmol m^−2 s^−1 light intensity with 12/12 h L/D cycle provided by cool white fluorescent (6500 K) T-8 bulbs. • Pesticide: A twelve day time-scale growth study was conducted to evaluate the effect of pesticide toxicity on algal growth and metabolism. The pesticide malathion (Spectracide, 50% v/v) was used and added to fresh BG11 medium to obtain final concentrations of 70, 140, 280 and 560 mg of malathion L^−1 for the treatments. […] After sterilization, C. sorokiniana was added as inoculum to obtain an initial biomass concentration of 0.075 g L^−1 in all the treatments in triplicates. The cultures were incubated in the growth chamber as explained above. For each sampling period, three randomly chosen flasks of each treatment were removed and then refrigerated at 4° C. until further analysis.

Anabaena = details: cited from earlier work; for inhibition: 500 mg malathion L^−1
Chlorogloea fritschii = details: cited from earlier work
Chlorella sorokiniana [2] = test: Malathion growth study: chlorophyll fluorescence kinetics by PAM; type: cell-based, Chlorella sorokiniana (UTEX 2805); details: day 12; for Fv/Fm (maximum photosynthetic efficiency of PSII): control 0.672
Protocol: A 2% neutral lipid corn standard supplied by Ankom was used as an analytical standard. Carbon, hydrogen, nitrogen, and sulfur percentages in the biomass were estimated using a LECO CHNS932 elemental analyzer. • Chlorophyll fluorescence kinetics by PAM: The Pulse-Amplitude-Modulation Fluorometer (Mini-PAM, WALZ GmBH, Effeltrich, Germany) used for chlorophyll a fluorescence measurements were performed in real-time using the mini-PAM's internal halogen light as the actinic light source for fluorescence measurements of maximum photosynthetic yield, effective photosynthetic yield (PSII), electron transfer rate (ETR), photosynthetic quenching (qP) and non photochemical quenching (NPQ). The algal samples were dark adapted for one hour prior to the analysis. A small quantity (2.5 mL) of dark adopted sample in a 10 mm path length cuvette was placed in a dark chamber. The PAM fluorometer was connected to the sample via a fiber optic bundle. After stabilization of the auto fluorescence, the probing light beam was turned on and the baseline fluorescence (Fo) was recorded. A single saturating flash (1 s, 8,000 μmol m^−2 s^−1) was then applied to reach maximal fluorescence (Fm). The maximum photosynthetic efficiency of PSII was estimated as in the following equation for the dark adopted culture:
The induction kinetics were initiated by turning on the actinic light source (100 μmol m^−2 s^−1). During the induction curve under actinic light (AL) exposure, saturating light pulses (1 s; 8,000 μmol m^−2 s^−1) were given every 20 seconds to determine the effective quantum yield (Φ PSII), electron transfer rates (ETR), photochemical (qP) and non-photochemical (NPQ) quenching. The qP value was determined by the PAM data analysis software, which uses Fo as opposed to Fo′ in the equation providing a estimate of qP rather than an absolute measurement using far-red light exposure. These tests were done in duplicates.
as §1

Chlorella sorokiniana [3] = test: Malathion growth study: neutral lipid content; type: cell-based, Chlorella sorokiniana (UTEX 2805); details: for increase in lipid production over the control: day 6
Protocol: • Biomass Composition: Neutral lipids were estimated using an Ankom XT10 automated extractor (Chinnasamy et al., (2010) Bioresource Technol. 101: 3097-3105). Lipid content was measured gravimetrically using hexane as solvent. The same filters used for the biomass measurements (from 25 mL of culture) were used for the lipid estimation as they provided the initial weight of biomass (W1). The filters were then placed into Ankom XT4 extraction bags, sealed with the impulse sealer and then autoclaved at 121° C. for 15 min. After drying, the extraction bags were placed in a resealable plastic bag with desiccant material while each individual bag was removed and carefully weighed (W2). Extraction bags were then placed into the Ankom extractor and extraction was performed for 2 h at 105° C. with hexane as solvent. Bags were then transferred to a forced-air oven and dried at 60° C. overnight, then cooled in a dessicator and weighed (W3). The following equation was used to calculate the lipid content of algal samples:
as §1

[4] = test system: Stigeoclonium, Tribonema, and Vaucheria; details: 1 μg L^−1; cited from earlier work

For `CCOC(=O)CC(SP(=S)(OC)OC)C(=O)OCC` (stereo not shown) [malathion, 2-(dimethoxyphosphinothioylthio)butanedioic acid diethyl ester], the “effect on growth, in words” value (Chlorella pyrenoidosa) is given as “very little effect on the growth”, the “ratio of chl a to chl b” value (Chlorella sorokiniana [1]; 70 mg malathion L^−1, day 0) is given as “approximately 0.85” and the “inhibition in chl a” value (Chlorella sorokiniana [1]; 70 mg malathion L^−1, day 3) is given as 45%. For the same compound, the “inhibition in chl a” value (Chlorella sorokiniana [1]; 70 mg malathion L^−1, day 6) was 49%, the “inhibition in chl a” value (Chlorella sorokiniana [1]; 70 mg malathion L^−1, day 9) was 51% and the “inhibition in chl a” value (Chlorella sorokiniana [1]; 70 mg malathion L^−1, day 12) was 26%. The “ratio of chl a to chl b” value (Chlorella sorokiniana [1]; 70 mg malathion L^−1, day 12) was “approximately 0.90”, the “ratio of chl a to chl b” value (Chlorella sorokiniana [1]; 140 mg malathion L^−1, day 0) was “approximately 0.85” and the “ratio of chl a to chl b” value (Chlorella sorokiniana [1]; 140 mg malathion L^−1, day 12) was “approximately 0.90”. The “decrease of chl a/b ratio” value (Chlorella sorokiniana [1]; 280 mg malathion L^−1) was “approximately 100%”, the “resistance to malathion, in words” value (Anabaena; 500 mg L^−1) was “highly resistant” and the inhibition (Anabaena; day 5) was 64%. The inhibition (Anabaena; day 30) was 15%, the “concentration that permanently suppressed the growth” value (Chlorogloea fritschii) was 200 mg/L and the “effective photosynthetic yield, higher over the control” value (Chlorella sorokiniana [2]; 70 mg malathion L^−1) was “about 1.2 times”. The “electron transfer rate, higher over the control” value (Chlorella sorokiniana [2]; 70 mg malathion L^−1) was “about 1.2 times”, the “non-photochemical quenching (NPQ) versus control, in words” value (Chlorella sorokiniana [2]; 70 mg malathion L^−1) was “comparable with the control” and the “photochemical quenching, higher over the control” value (Chlorella sorokiniana [2]; 70 mg malathion L^−1) was “about 1.2 times”. For the same compound, the “Fv/Fm (maximum photosynthetic efficiency of PSII)” value (Chlorella sorokiniana [2]; 70 mg malathion L^−1) was 0.671, the “effective photosynthetic yield, higher over the control” value (Chlorella sorokiniana [2]; 140 mg malathion L^−1) was “about 1.2 times” and the “electron transfer rate, higher over the control” value (Chlorella sorokiniana [2]; 140 mg malathion L^−1) was “about 1.2 times”. For the same compound, the “non-photochemical quenching (NPQ), less than the control” value (Chlorella sorokiniana [2]; 140 mg malathion L^−1) was 18%, the “photochemical quenching, higher over the control” value (Chlorella sorokiniana [2]; 140 mg malathion L^−1) was “about 1.2 times” and the “Fv/Fm (maximum photosynthetic efficiency of PSII)” value (Chlorella sorokiniana [2]; 140 mg malathion L^−1) was 0.641. For the same compound, the “increase in lipid production over the control” value (shortened to “increase … over the control”) (Chlorella sorokiniana [3]; 70 mg malathion L^−1) was 70%, the “increase in lipid over control” value (Chlorella sorokiniana [3]; 70 mg malathion L^−1, day 9) was 42% and the “increase … over the control” value (Chlorella sorokiniana [3]; 140 mg malathion L^−1) was 110%. For the same compound, the “increase in lipid over control” value (Chlorella sorokiniana [3]; 140 mg malathion L^−1, day 9) was 119%, the “increase in lipid content over control” value (Chlorella sorokiniana [3]; 140 mg malathion L^−1, day 12) was 25% and the “increase … over the control” value (Chlorella sorokiniana [3]; 280 mg malathion L^−1) was 325%. The “increase in lipid over control” value (Chlorella sorokiniana [3]; 280 mg malathion L^−1, day 9) was 212%, the “increase in lipid content of the cells with respect to day 3” value (“increase in lipid content of the cells” for short) (Chlorella sorokiniana [3]; T1, 70 mg malathion L^−1, day 9, control 97%) was 193% and the “increase in lipid content of the cells” value (Chlorella sorokiniana [3]; T1, 70 mg malathion L^−1, day 12, control 287%) was 406%. For the same compound, the “increase in lipid content of the cells” value (Chlorella sorokiniana [3]; T2, 140 mg malathion L^−1, day 9, control 97%) was 150%, the “increase in lipid content of the cells” value (Chlorella sorokiniana [3]; T2, 140 mg malathion L^−1, day 12, control 287%) was 574% and the “increase in lipid production” value (Chlorella sorokiniana [3]; concentrations ranging from 70-280 mg L^−1 in the growth medium) was 70-325%. For the same compound, the “inhibition of chlorophyll production” value [4] was 100%.
